Experimental data taken from patent US9433607B2, “Composition for prevention or treatment of cancer comprising N-methylenenaphtho[2,1-b]furan-2-carbohydrazide derivatives as an active ingredient” (KOREA RESEARCH INSTITUTE OF BIOSCIENCE AND BIOTECHNOLOGY, priority 2012, dated 2016).
pIC50: −log10 of the molar value.

Experiments:
[1] = tested on: HeLa cell line; assay: Anti-proliferative activity in HeLa cells (MTT assay); format: cell-based; conditions: Homo sapiens
Protocol: Particularly, HeLa cell line (ATCC, USA) was treated with the compounds of Table 1 respectively, and then IC50 (the half maximal inhibitory concentration) was investigated (Table 1).
HeLa cells were treated with 100 nM, 250 nM, 500 nM and 1 μM of ethyl(2-methyl-3{(E)-[(naphtho[2,1-b]furan-2-ylcarbonyl)hydrazono]methyl}-1H-indole-1-yl)acetate or DMSO for 4 days. Then, the cell growth was confirmed by MTT assay. All the obtained numbers were calculated by normalizing the value of Day 0. The data presents the mean value obtained from the assay performed in triplicate.
Particularly, HeLa cells were distributed in a 96-well plate at the density of 2×10^3 cells/well. The cells were treated with DMSO or the compound of the present invention, to which MTT reagent was added at the concentration of 10 μl/well. 2 hours later, OD450 was measured, which became the value of Day 0. 4 days later, MTT reagent was added thereto again. 2 hours later, OD450 was measured. The data presents the mean value obtained from the assay performed in triplicate.

[2] = tested on: PC-3; assay: Anti-proliferative MTT assay, PC-3; format: cell-based; conditions: Homo sapiens, 96 h, PC-3, Prostate, 4 days
Protocol: (§1) Various cancer cell lines (rectal cancer, prostate cancer, breast cancer, lung cancer, stomach cancer, liver cancer, leukemia, brain cancer, and glioma cell lines) were cultured in microtiter plate (1-3×10^3 cells/well), to which ethyl(2-methyl-3{(E)-[(naphtho[2,1-b]furan-2-ylcarbonyl)hydrazono]methyl}-1H-indole-1-yl)acetate was treated. The culture continued for 4 days. Cytotoxicity was investigated by MTT assay by the same manner as described in Example <1-2>. IC50 was calculated by long-dose response curve. The data presents the mean value obtained from the assay performed in triplicate.

[3] = tested on: SNU-601; assay: Anti-proliferative MTT assay, SNU-601; format: cell-based; conditions: 96 h, SNU-601, Stomach, 4 days
Protocol: as §1

[4] = tested on: HepG2; assay: Anti-proliferative MTT assay, HepG2; format: cell-based; conditions: Homo sapiens, 96 h, HepG2, Liver, 4 days
Protocol: as §1

[5] = tested on: caspase-3 and PARP; assay: Immunoblotting of apoptosis related proteins; format: cell-based; conditions: HeLa cells
Protocol: Particularly, HeLa cells were treated with DMSO or ethyl(2-methyl-3{(E)-[(naphtho[2,1-b]furan-2-ylcarbonyl)hydrazono]methyl}-1H-indole-1-yl)acetate for 24 or 48 hours. Then, immunoblotting was performed to investigate the expressions of caspase-3 and PARP, the apoptosis related proteins. PARP (poly(ADP-ribose)polymerase) is one of the downstream cleavage proteins derived from caspase3. Immunoblotting was performed using caspase-3, PARP, and GAPDH specific antibodies.

[6] = tested on: Hep3B; assay: Anti-proliferative MTT assay, Hep3B; format: cell-based; conditions: Homo sapiens, 96 h, Liver, 4 days
Protocol: as §1

[7] = tested on: HT-29; assay: Anti-proliferative MTT assay, HT-29; format: cell-based; conditions: Homo sapiens, 96 h, HT-29, Large intestine, 4 days
Protocol: as §1

[8] = tested on: SNU-484; assay: Anti-proliferative MTT assay, SNU-484; format: cell-based; conditions: 96 h, SNU-484, Stomach, 4 days
Protocol: as §1

[9] = tested on: A549; assay: Anti-proliferative MTT assay, A549; format: cell-based; conditions: Homo sapiens, 96 h, A549, Lung, 4 days
Protocol: as §1

[10] = tested on: Various cancer cell lines; assay: Anti-proliferative MTT assay, various cancer cell lines (summary); format: cell-based; conditions: 96 h, range over the cell lines, 4 days, read-out: IC50 across cancer cell lines
Protocol: as §1

[11] = tested on: FVB/N mouse induced with skin tumor; assay: DMBA/TPA induced skin tumor model; format: in vivo
Protocol: In this invention, the male FVB/N mice (6-7 weeks, Jackson Laboratory, USA) were raised under the condition of 12 hr bright lighting/12 hr dim lighting at the temperature of 24±2° C. with the humidity of 50±10% with water and feed provided freely. The care and process of the test animal was reviewed and approved by Institutional Animal Care and Use Committee (IACUC), Korea Research Institute of Bioscience and Biotechnology (KRIBB). DMBA (7,12-dimethylbenz[α]anthracene), TPA (12-O-tetradecanoylphorbol-13-acetate) and cholchicine were purchased from Sigma-Aldrich, and the synthesized ethyl(2-methyl-3{(E)-[(naphtho[2,1-b]furan-2-ylcarbonyl)hydrazono]methyl}-1H-indole-1-yl)acetate was provided from Dr. Thimmegowda.
Particularly, the dorsal skin of the said FVB/N mouse was shaved two days before the experiment. 100 μg of DMBA was added to 0.2 ml of acetone, which was treated to the mouse by single-local administration for 1 week to induce tumor. 5 fig of TPA was added to 0.2 ml of acetone, which was treated to the above mouse induced with tumor […] for 15 weeks to grow the tumor. 500 nM of ethyl(2-methyl-3{(E)-[(naphtho[2,1-b]furan-2-ylcarbonyl)hydrazono]methyl}-1H-indole-1-yl)acetate or cholchicine was dissolved in 0.2 ml of acetone, which was treated to the above mouse locally for 30 minutes each time for 15 weeks. Each group was composed of at least 10 mice and total 4 groups were prepared:
Group 1: DMBA and acetone treated group (negative control)
Group 2: DMBA and TPA treated group (positive control)
Group 3: DMBA/TPA and cholchicine treated group (experimental group 1)
Group 4: DMBA/TPA and ethyl(2-methyl-3{(E)-[(naphtho[2,1-b]furan-2-ylcarbonyl)hydrazono]methyl}-1H-indole-1-yl)acetate treated group (experimental group 2).
In addition, skin tumor such as papilloma was checked every week during the whole period of experiment. The tumor in the size of at least 2 mm was judged as positive. 15 weeks later, the mice were sacrificed with CO2. The skin tumor was extracted for histopathological/biochemical analysis.
The average number and the volume of tumor in each group were calculated.
Each mouse group was treated with different materials by the same manner as described in Example <8-2>, followed by observation for 15 weeks, and then the number of mice having skin tumor was counted. Tumor development rate was presented as %.
The mouse induced with skin tumor by the same manner as described in Example <8-2> was treated with DMBA, and then the induced tumors were observed and weighed for 15 weeks to produce the average weight of tumor.

- pIC50 ([1]; 96 h, HeLa, Cervix, MTT, 4 days): 6.59
- pIC50 ([1]; HeLa cell line): 6.59
- pIC50 [2]: 6.19
- pIC50 [3]: 6.11
- pIC50 [4]: 6.09
- pIC50 [6]: 6.17
- pIC50 [7]: 6.15
- pIC50 [8]: 6.66
- pIC50 [9]: 6.07
- pIC50 [10]: 5.97 to 6.66
Compound: CCOC(=O)Cn1c(C)c(/C=N/NC(=O)c2cc3c(ccc4ccccc43)o2)c2ccccc21 [STK899704]
- PARP cleavage ([5]; 48 hours): significantly increased
- caspase-3 cleavage ([5]; 48 hours, 0.5 μM): significantly increased
- caspase-3 cleavage ([5]; 48 hours, 1 and 5 μM): more significantly increased
- caspase-3 cleavage ([5]; within 24 hours): not observed
- number of skin tumor ([11]; 500 nM in 0.2 ml acetone, local, 15 weeks): significantly reduced
- weight of tumor compared with positive control ([11]; 15 weeks): significantly lighter
- average volume of skin tumor reduced compared with positive control ([11]; 15 weeks, 500 nM local): 20.3%
- decrease of average number of skin tumor compared with positive control ([11]; 15 weeks, 500 nM local): 4.75 times
- average weight of tumor as fraction of positive control ([11]; 15 weeks, experimental group 2): 1/10
- week to which tumor formation was postponed ([11]; tumor of at least 2 mm, positive control from 8th week): 10 week
